Reference: patent US7795299B2, “Neo-tanshinlactone and analogs as potent and selective anti-breast cancer agents” (The University of North Carolina at Chapel Hill, priority 2004, dated 2010)
Converted amounts (≈) assume the structure as drawn. “And” between values parts separate entries of the source, which are not always exact repeats. Equal values may be shown once. Where a name gives a salt, the structure may show the parent alone.

How the values were obtained:
[1] = tested on: A431 (EGFR over-expressing skin cancer); assay: In vitro anticancer assay (SRB), A431; assay type: cell-based, human; conditions: concentration that reduces cell growth by 50%, 3 days in culture, SRB; for IC50: Homo sapiens, A-431, 72 h, read-out: ED50, A431
Description: (§1) In Vitro Anticancer Assay (Nakanishi, Y. et al., J. Med. Chem. 2003, 46, 3185). All stock cultures were grown in T-25 flasks. Freshly trypsinized cell suspensions were seeded in 96-well microtiter plates at densities of 1500-7500 cells per well with compounds added from DMSO-diluted stock. After 3 days in culture, attached cells were fixed with cold 50% trichloroacetic acid and then stained with 0.4% sulforhodamine B (SRB). The absorbency at 562 nm was measured using a microplate reader after solubilizing the bound dye. The mean ED50 is the concentration of agent that reduces cell growth by 50% under the experimental conditions and is the average from at least three independent determinations that were reproducible and statistically significant (FIG. 2). The following human tumor cell lines were used in the assay: A549 (non small cell lung cancer), MCF-7 (estrogen receptor positive breast cancer), ZR-75-1 (estrogen receptor positive breast cancer), MDA-MB-231 (estrogen receptor negative breast cancer), HS 587-T (estrogen receptor negative breast cancer), SK− BR-3 (HER-2-overexpressing breast cancer), A431 (EGFRoverexpressing skin cancer), LN-CaP (AR-dependent prostate cancer), SW620 (colon cancer), PC-3 (prostate cancer), KB (nasopharyngeal carcinoma), KB-VIN (vincristine-resistant KB subline). All cell lines were obtained from the Lineberger Comprehensive Cancer Center (UNC-CH) or from ATCC (Rockville, Md.) and were cultured in RPMI-1640 medium supplemented with 25 mMHEPES, 0.25% sodium bicarbonate, 10% fetal bovine serum, and 100 μg/mL kanamycin.
(§2) Biological assay. All stock cultures are grown in T-25 flasks. Freshly trypsinized cell suspensions were seeded in 96-well microtitre plates at densities of 1500-7500 cells per well with compounds added from DMSO-diluted stock. After 3 days in culture, attached cells were fixed with cold 50% trichloroacetic acid and then stained with 0.4% sulforhodamine B (SRB). The absorbency at 562 nm was measured using a microplate reader after solubilizing the bound dye. The mean ED50 is the concentration of agent that reduces cell growth by 50% under the experimental conditions and is the average from at least three independent determinations that were reproducible and statistically significant. The following human tumor cell lines were used in the assay: A549 (non-small cell lung cancer), MCF-7 (estrogen receptor positive breast cancer), ZR-75-1 (estrogen receptor positive breast cancer), MDA MB-231 (estrogen receptor negative breast cancer), HS 587-T (estrogen receptor negative breast cancer), SK-BR-3 (estrogen receptor negative, HER-2 over-expressing breast cancer), A431 (EGFR over-expressing skin cancer), LN-CaP (AR-dependent prostate cancer), SW620 (colon cancer), PC-3 (prostate cancer), KB (nasopharyngeal carcinoma), KB-VIN (Vincristine resistant KB subline). All cell lines were obtained from the Lineberg Cancer Center (UNC-CH) or from ATCC (Rockville, Md.) and were cultured in RPMI-1640 medium supplemented with 25 mM HEPES, 0.25% sodium bicarbonate, 10% fetal bovine serum, and 100 μg/mL kanamycin.

[2] = tested on: KB (nasopharyngeal carcinoma); assay: In vitro anticancer assay (SRB), KB; assay type: cell-based, human; conditions: concentration that reduces cell growth by 50%, 3 days in culture, SRB; for IC50: Homo sapiens, 72 h, read-out: ED50, KB
Description: as §1, §2

[3] = tested on: SK-BR-3 (HER-2-overexpressing breast cancer); assay: In vitro anticancer assay (SRB), SK-BR-3; assay type: cell-based, human; conditions: concentration that reduces cell growth by 50%, 3 days in culture, SRB; for IC50: Homo sapiens, SK-BR-3, 72 h, read-out: ED50, SK-BR-3 (ER−, HER2+)
Description: as §1, §2

[4] = tested on: MCF-7 (estrogen receptor positive breast cancer); assay: In vitro anticancer assay (SRB), MCF-7; assay type: cell-based, human; conditions: concentration that reduces cell growth by 50%, 3 days in culture, SRB; for IC50: Homo sapiens, MCF7, 72 h, read-out: ED50, MCF-7 (ER+)
Description: (§3) All stock cultures were grown in T-25 flasks. Freshly trypsinized cell suspensions were seeded in 96-well microtiter plates at densities of 1500-7500 cells per well with compounds added from DMSO-diluted stock. After 3 days in culture, attached cells were fixed with cold 50% trichloroacetic acid and then stained with 0.4% sulforhodamine B (SRB). The absorbency at 562 nm was measured using a microplate reader after solubilizing the bound dye.
as §3, with “Biological assay. All” for “All”, “cultures are” for “cultures were”, “96-well microtitre” for “96-well microtiter”

[5] = tested on: several human cancer cell lines; assay: Cytotoxic activity against several human tumor cell lines (panel, overall statements); assay type: cell-based; conditions: several human tumor cell lines, Table 4
Description: as §1
as §3, with “Biological assay. All” for “All”, “cultures are” for “cultures were”, “96-well microtitre” for “96-well microtiter”, “dye. […]” for “dye.”

SW620 (colon cancer) = assay: In vitro anticancer assay (SRB), SW620; assay type: cell-based, human; conditions: concentration that reduces cell growth by 50%, 3 days in culture, SRB; for IC50: Homo sapiens, SW-620, 72 h, read-out: ED50, SW620
Description: as §1, §2

[6] = tested on: ZR-75-1 (estrogen receptor positive breast cancer); assay: In vitro anticancer assay (SRB), ZR-75-1; assay type: cell-based, human; conditions: concentration that reduces cell growth by 50%, 3 days in culture; for IC50: Homo sapiens, ZR-75-1, 72 h, read-out: ED50, ZR-75-1 (ER+)
Description: as §3
as §3, with “Biological assay. All” for “All”, “cultures are” for “cultures were”, “96-well microtitre” for “96-well microtiter”

[7] = tested on: MDA-MB-231 (estrogen receptor negative breast cancer); assay: In vitro anticancer assay (SRB), MDA-MB-231; assay type: cell-based, human; conditions: concentration that reduces cell growth by 50%, 3 days in culture, SRB
Description: as §3
as §3, with “Biological assay. All” for “All”, “cultures are” for “cultures were”, “96-well microtitre” for “96-well microtiter”

[8] = tested on: KB-VIN (vincristine-resistant KB subline); assay: In vitro anticancer assay (SRB), KB-VIN; assay type: cell-based, human; conditions: concentration that reduces cell growth by 50%, 3 days in culture, SRB
Description: as §1
as §3, with “Biological assay. All” for “All”, “cultures are” for “cultures were”, “96-well microtitre” for “96-well microtiter”, “dye. […]” for “dye.”

[9] = tested on: HS 587-T (estrogen receptor negative breast cancer); assay: In vitro anticancer assay (SRB), HS 587-T; assay type: cell-based, human; conditions: concentration that reduces cell growth by 50%, 3 days in culture
Description: as §3
as §3, with “Biological assay. All” for “All”, “cultures are” for “cultures were”, “96-well microtitre” for “96-well microtiter”

[10] = tested on: LN-CaP (AR-dependent prostate cancer); assay: In vitro anticancer assay (SRB), LN-CaP; assay type: cell-based, human; conditions: concentration that reduces cell growth by 50%, 3 days in culture, SRB
Description: as §1
as §3, with “Biological assay. All” for “All”, “cultures are” for “cultures were”, “96-well microtitre” for “96-well microtiter”, “dye. The mean ED50 is the concentration of agent that reduces cell growth by 50% under the experimental conditions and is the average from at least three independent determinations that were reproducible and statistically significant. […]” for “dye.”

PC-3 (prostate cancer) = assay: In vitro anticancer assay (SRB), PC-3; assay type: cell-based, human; conditions: concentration that reduces cell growth by 50%, 3 days in culture
Description: as §3, with “In Vitro Anticancer Assay (Nakanishi, Y. et al., J. Med. Chem. 2003, 46, 3185). All” for “All”, “dye. The mean ED50 is the concentration of agent that reduces cell growth by 50% under the experimental conditions and is the average from at least three independent determinations that were reproducible and statistically significant (FIG. 2). […]” for “dye.”
Biological assay. […] The absorbency at 562 nm was measured using a microplate reader after solubilizing the bound dye. […]

Compound	IC50 [1] [µg/mL]	IC50 [2] [µg/mL]	IC50 [3] [µg/mL]	melting point [°C]	IC50 [4] [µg/mL]	overall cytotoxic activity (in words) [5]	IC50 (SW620 (colon cancer)) [µg/mL]	IC50 [6] [µg/mL]	further results
Cc1coc2c1c(=O)oc1c3ccccc3c(Cl)cc21 [Compound 2d, 6-Chloro-17-methyl-11,15-dioxa-cyclopenta[a]phenanthren-12-one]	8 (≈ 28.1 µM)	> 10	4.5 (≈ 15.8 µM)	220 to 221	5 (≈ 17.6 µM)	did not show strong activity	> 10	8.6 (≈ 30.2 µM)	–
COc1cc2c3occ(C)c3c(=O)oc2c2ccccc12 [Compound 2e, 6-Methoxy-17-methyl-11,15-dioxa-cyclopenta[a]phenanthren-12-one]	9.5 (≈ 33.9 µM)	> 10	8.6 (≈ 30.7 µM)	203 to 205	5 (≈ 17.8 µM)	did not show strong activity	9 (≈ 32.1 µM)	> 10	–
CC/C(=C(\c1ccccc1)c1ccc(OCCN(C)C)cc1)c1ccccc1 [TAM, tamoxifen citrate, reference compound]	7	9	5	–	5	–	4	5	ED50, A431 [1]: 7.0 µg/mL; ED50, KB [2]: 9.0 µg/mL; IC50 ([7]; Homo sapiens, MDA-MB-231, 72 h, read-out: ED50, MDA-MB-231 (ER−)): 8 µg/mL; ED50, MDA-MB-231 (ER−) ([7]; listed as Tamoxifen citrate): 7.0 µg/mL; ED50, KB-VIN [8]: 9 µg/mL; ED50, HS 587-T (ER−) ([9]; printed HS587-1 in Table 4): 9 µg/mL and 7.0 µg/mL; ED50, HS 587-T (ER−) ([9]; printed HS587-1 in Table 4, listed as Tamoxifen citrate): 8.5 µg/mL; ED50, SK-BR-3 (ER−, HER2+) [3]: 5.0 µg/mL; ED50, LN-CaP [10]: 6 µg/mL; ED50, PC-3 (PC-3 (prostate cancer)): 10 µg/mL; ED50, MCF-7 (ER+) [4]: 5.0 µg/mL; ED50, MCF-7 (ER+) ([4]; listed as Tamoxifen citrate): 5.0 µg/mL; ED50, SW620 (SW620 (colon cancer)): 4.0 µg/mL; ED50, ZR-75-1 (ER+) ([6]; listed as Tamoxifen citrate): 3.6 µg/mL
